Results from paper PMC7529893, “Structural basis for substrate recognition and chemical inhibition of oncogenic MAGE ubiquitin ligases” (Nature Communications, 2020).

biological target: T1, MAGE-A11:PCF11 interaction (GST-MAGE-A11 and FAM-PCF11_4) (Homo sapiens, UniProt P43364); test: TR-FRET primary / single point screen at 15 µM; type: binding; details: single point TR-FRET screening of 797 quinoline compounds against MAGE-A11:PCF11
T1 construct: GST-MAGE-A11 MHD (human MAGE-A11 MHD amino acid 218-429); made in house; host or cells: E. coli BL21(DE3)
T1 sequence (P43364 218-429): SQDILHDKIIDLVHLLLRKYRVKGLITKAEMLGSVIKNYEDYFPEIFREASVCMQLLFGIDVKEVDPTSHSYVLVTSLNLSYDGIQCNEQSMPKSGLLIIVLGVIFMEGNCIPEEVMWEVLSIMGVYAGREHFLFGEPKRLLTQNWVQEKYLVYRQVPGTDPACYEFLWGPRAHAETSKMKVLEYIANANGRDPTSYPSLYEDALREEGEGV
Procedure, shortened: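 TR-FRET 520/490 nm emission ratio was read after 90 min at room temperature. Wells held 5 nM GST-MAGE-A11, 5 nM Tb-anti-GST, 200 nM FAM-PCF11_4 and 15 µM compound in Tris pH 7.5 buffer with MgCl2, BSA and DTT. %Inhibition was scaled to DMSO and minus-MAGE-A11 controls.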

Row | Compound | percent inhibition (TR-FRET)
1 | COc1ccc2nc3cc(Cl)ccc3c(NCCCNCc3ccc4c(c3)OCO4)c2c1 [SJ000361085] | -363.307
2 | COc1ccc2nc3cc(Cl)ccc3c(NCCCNCc3ccccc3)c2c1 [SJ000361086] | -432.435
3 | COc1ccc2nc3cc(Cl)ccc3c(NCCCNCC3CC3)c2c1 [SJ000361087] | -502.358
4 | COc1ccc2nc3cc(Cl)ccc3c(NCCCNCc3cccs3)c2c1 [SJ000361088] | -453.536
5 | COc1ccc2nc3cc(Cl)ccc3c(NCCCNCc3ccc(C)o3)c2c1 [SJ000361089] | -229.025
6 | COc1ccc2nc3cc(Cl)ccc3c(NCCCNCC3CCCCC3)c2c1 [SJ000361090] | -411.15
7 | COc1ccc2nc3cc(Cl)ccc3c(NCCCNCc3cc(F)ccc3F)c2c1 [SJ000361091] | -327.201
8 | CCC(CC)CNCCCNc1c2ccc(Cl)cc2nc2ccc(OC)cc12 [SJ000361092] | -427.368
9 | CCC(C)CNCCCNc1c2ccc(Cl)cc2nc2ccc(OC)cc12 (centres unmarked) [SJ000361093] | -451.494
10 | COc1ccc2nc3cc(Cl)ccc3c(NCCCNCc3sccc3C)c2c1 [SJ000361094] | -321.32
11 | COc1ccc2nc3cc(Cl)ccc3c(NCCCNCc3ccccc3C(F)(F)F)c2c1 [SJ000361095] | -169.468
12 | CCCNCCCNc1c2ccc(Cl)cc2nc2ccc(OC)cc12 [SJ000361096] | -498.476
13 | CCCCCCNCCCNc1c2ccc(Cl)cc2nc2ccc(OC)cc12 [SJ000361097] | -281.691
14 | COc1ccc2nc3cc(Cl)ccc3c(NCCCNCCC(C)SC)c2c1 (centres unmarked) [SJ000361098] | -514.546
15 | Clc1ccc2c(NCCCCN(Cc3ccccc3)Cc3ccncc3)ccnc2c1 [SJ000361190] | -9.945
16 | Cc1ccsc1CN(CCCCNc1ccnc2cc(Cl)ccc12)Cc1ccccc1 [SJ000361191] | 23.4378
17 | FC(F)(F)c1ccccc1CN(CCCCNc1ccnc2cc(Cl)ccc12)Cc1ccccc1 [SJ000361192] | 27.8155
18 | Cc1cc(C)c(CN(CCCCNc2ccnc3cc(Cl)ccc23)Cc2ccccc2)c(C)c1 [SJ000361193] | 26.0268
19 | Clc1ccc2c(NCCCCN(Cc3ccccc3)CC3CCCCC3)ccnc2c1 [SJ000361194] | 41.9261
20 | CCC(CC)CN(CCCCNc1ccnc2cc(Cl)ccc12)Cc1ccccc1 [SJ000361195] | 25.5382
21 | CCCCCN(CCCCNc1ccnc2cc(Cl)ccc12)Cc1ccccc1 [SJ000361196] | 19.0968

same assay, conditions: single point TR-FRET screening of quinoline compounds against MAGE-A11:PCF11; 15 µM

Row | Compound | percent inhibition (TR-FRET)
22 | CCCN(CCCNc1ccnc2cc(Cl)ccc12)CCOCc1ccccc1 [SJ000357577] | -13.1805
23 | CC(C)(C)CCN(CCCNc1ccnc2cc(Cl)ccc12)Cc1ccccc1 [SJ000357578] | 25.6873
24 | CCCCN(CCCNc1ccnc2cc(Cl)ccc12)Cc1ccccc1 [SJ000357579] | 19.3068
25 | Clc1ccc2c(NCCCN(CCc3ccccc3)Cc3ccccc3)ccnc2c1 [SJ000357580] | 14.4057
26 | Clc1ccc2c(NCCCN(CCOCc3ccccc3)Cc3ccccc3)ccnc2c1 [SJ000357583] | 13.2411
27 | CCCN(CCCNc1ccnc2cc(Cl)ccc12)Cc1cccc2c1OCO2 [SJ000357594] | 18.1434
28 | CCCN(CCCNc1ccnc2cc(Cl)ccc12)Cc1ccccc1OC(F)(F)F [SJ000357595] | -21.8698
29 | CCCN(CCCNc1ccnc2cc(Cl)ccc12)Cc1cc(F)cc(F)c1O [SJ000357597] | 15.9573
30 | Clc1ccc2c(NCCCN(Cc3ccccc3)Cc3cccc4c3OCO4)ccnc2c1 [SJ000357598] | 3.49
31 | FC(F)(F)Oc1ccccc1CN(CCCNc1ccnc2cc(Cl)ccc12)Cc1ccccc1 [SJ000357599] | 19.7634
32 | COc1ccc2nc3cc(Cl)ccc3c(NCCCNCc3ccc[nH]3)c2c1 [SJ000361084] | 0.9854
33 | COc1ccc2nc3cc(Cl)ccc3c(NCCCNCc3c4ccccc4cc4ccccc34)c2c1 [SJ000361099] | -3.728
34 | Clc1ccc2c(NCCCNCC3CC3)ccnc2c1 [SJ000361101] | 11.4651
35 | Clc1ccc2c(NCCCNCC3CCCCC3)ccnc2c1 [SJ000361102] | 15.626
36 | CCC(CC)CNCCCNc1ccnc2cc(Cl)ccc12 [SJ000361103] | 16.5535
37 | CCC(C)CNCCCNc1ccnc2cc(Cl)ccc12 (centres unmarked) [SJ000361104] | 9.822
38 | FC(F)(F)c1ccc2c(NCCCNCc3ccc[nH]3)ccnc2c1 [SJ000361105] | 41.6887
39 | FC(F)(F)c1ccc2c(NCCCNCC3CC3)ccnc2c1 [SJ000361108] | 22.8076
40 | Cc1ccc(CNCCCNc2ccnc3cc(C(F)(F)F)ccc23)o1 [SJ000361109] | 14.4523
41 | FC(F)(F)c1ccc2c(NCCCNCC3CCCCC3)ccnc2c1 [SJ000361110] | 27.1172
42 | CCC(CC)CNCCCNc1ccnc2cc(C(F)(F)F)ccc12 [SJ000361111] | 24.3255
43 | CCC(C)CNCCCNc1ccnc2cc(C(F)(F)F)ccc12 (centres unmarked) [SJ000361112] | 18.4697
44 | FC(F)(F)c1ccc2c(NCCCNCc3ccco3)ccnc2c1 [SJ000361113] | 18.0466
45 | CCCNCCCNc1ccnc2cc(Cl)ccc12 [SJ000361119] | 9.7847
46 | CCCCCCNCCCNc1ccnc2cc(Cl)ccc12 [SJ000361120] | 22.2507
47 | CSC(C)CCNCCCNc1ccnc2cc(Cl)ccc12 (centres unmarked) [SJ000361121] | 13.499
48 | CCCNCCCNc1ccnc2cc(C(F)(F)F)ccc12 [SJ000361123] | 12.8181

Row | Compound | percent inhibition (TR-FRET)
49 | CCCCCCNCCCNc1ccnc2cc(C(F)(F)F)ccc12 [SJ000361124] | 31.6112
50 | CSC(C)CCNCCCNc1ccnc2cc(C(F)(F)F)ccc12 (centres unmarked) [SJ000361125] | 24.4617
51 | Clc1ccc2c(NCCCN(Cc3ccccc3)Cc3ccccc3)ccnc2c1 [SJ000361166] | 14.7648
52 | Oc1ccccc1CN(CCCNc1ccnc2cc(Cl)ccc12)Cc1ccccc1 [SJ000361167] | 19.2696
53 | FC(F)(F)c1ccccc1CN(CCCNc1ccnc2cc(Cl)ccc12)Cc1ccccc1 [SJ000361168] | 2.509
54 | Cc1cc(C)c(CN(CCCNc2ccnc3cc(Cl)ccc23)Cc2ccccc2)c(C)c1 [SJ000361169] | 31.1941
55 | Clc1ccc2c(NCCCN(Cc3ccccc3)Cc3ccoc3)ccnc2c1 [SJ000361170] | 12.8437
56 | Clc1ccc2c(NCCCN(Cc3ccccc3)CC3CCCCC3)ccnc2c1 [SJ000361171] | 28.213
57 | CCC(CC)CN(CCCNc1ccnc2cc(Cl)ccc12)Cc1ccccc1 [SJ000361172] | 22.9132
58 | CCCCCN(CCCNc1ccnc2cc(Cl)ccc12)Cc1ccccc1 [SJ000361173] | 26.5568
59 | Fc1ccc(CN(CCCNc2ccnc3cc(Cl)ccc23)Cc2ccccc2)cc1F [SJ000361174] | 27.5505
60 | Fc1ccccc1CN(CCCNc1ccnc2cc(Cl)ccc12)Cc1ccccc1 [SJ000361175] | 0.9627
61 | Fc1cccc(CN(CCCNc2ccnc3cc(Cl)ccc23)Cc2ccccc2)c1 [SJ000361176] | 20.3571
62 | O=[N+]([O-])c1ccccc1CN(CCCNc1ccnc2cc(Cl)ccc12)Cc1ccccc1 [SJ000361177] | 16.421
63 | O=[N+]([O-])c1cccc(CN(CCCNc2ccnc3cc(Cl)ccc23)Cc2ccccc2)c1 [SJ000361178] | 17.0172
64 | O=[N+]([O-])c1ccc(CN(CCCNc2ccnc3cc(Cl)ccc23)Cc2ccccc2)cc1 [SJ000361179] | 20.1971
65 | O=C(O)c1ccccc1CN(CCCNc1ccnc2cc(Cl)ccc12)Cc1ccccc1 [SJ000361180] | 9.598
66 | Clc1ccc2c(NCCCN(Cc3ccccc3)Cc3cccc4ccccc34)ccnc2c1 [SJ000361181] | 26.2256
67 | Clc1ccc2c(NCCCN(Cc3ccccc3)Cc3ccc4ccccc4c3)ccnc2c1 [SJ000361182] | 22.052
68 | Cc1cccc(CN(CCCNc2ccnc3cc(Cl)ccc23)Cc2ccccc2)c1 [SJ000361183] | 6.02
69 | Clc1ccc(CN(CCCNc2ccnc3cc(Cl)ccc23)Cc2ccccc2)c(Cl)c1 [SJ000361184] | 25.4969
70 | Clc1ccc2c(NCCCN(CCCc3ccccc3)Cc3ccccc3)ccnc2c1 [SJ000361185] | 6.074
71 | CCC(C)CN(CCCNc1ccnc2cc(Cl)ccc12)Cc1ccccc1 (centres unmarked) [SJ000361186] | 29.5992
72 | Cc1ccc(C)c(CN(CCCNc2ccnc3cc(Cl)ccc23)Cc2ccccc2)c1 [SJ000361187] | 20.217
73 | COc1cccc(CN(CCCNc2ccnc3cc(Cl)ccc23)Cc2ccccc2)c1 [SJ000361188] | -9.05
74 | CCCCCCN(CCCNc1ccnc2cc(Cl)ccc12)Cc1ccccc1 [SJ000361189] | -40.7502
